For one data set, the system named is OX1. As to conditions: read-out: IC50 OX1; cited from earlier work.
In data set [1] the test system is rats. Description: Conditioned place preference. The format is in vivo, Sprague-Dawley rats.
The conditions of data set [2]: 2-methylbenzoxazole undergoes ring opening under acidic conditions; cited from earlier work.
A further data set relates to OX2. The note with it: read-out: IC50 OX2; Actelion high throughput screening hit; cited from earlier work.
Another data set has as its target T1, OX2 receptor (Homo sapiens, UniProt O43614).
T1 sequence (O43614 1-444): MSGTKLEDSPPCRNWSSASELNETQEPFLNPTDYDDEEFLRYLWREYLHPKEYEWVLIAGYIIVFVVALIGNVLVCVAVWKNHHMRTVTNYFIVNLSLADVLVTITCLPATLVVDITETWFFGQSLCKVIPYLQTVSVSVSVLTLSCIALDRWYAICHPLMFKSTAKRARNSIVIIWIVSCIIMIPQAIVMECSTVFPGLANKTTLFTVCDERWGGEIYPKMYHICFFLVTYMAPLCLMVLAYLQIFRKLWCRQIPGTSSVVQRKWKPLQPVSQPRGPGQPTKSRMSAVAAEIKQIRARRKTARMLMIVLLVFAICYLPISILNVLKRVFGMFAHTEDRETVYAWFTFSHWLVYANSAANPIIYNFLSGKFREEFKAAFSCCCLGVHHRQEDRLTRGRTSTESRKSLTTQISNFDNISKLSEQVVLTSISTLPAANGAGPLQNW
Description: OX2 calcium mobilization functional assay. The format is cell-based. For orientation: Calcium flux is commonly read through the fluorescence of an indicator in the cells.

A further data set addresses T2, orexin 1 (OX1) receptor (Homo sapiens, UniProt O43613).
T2 sequence (O43613 1-425): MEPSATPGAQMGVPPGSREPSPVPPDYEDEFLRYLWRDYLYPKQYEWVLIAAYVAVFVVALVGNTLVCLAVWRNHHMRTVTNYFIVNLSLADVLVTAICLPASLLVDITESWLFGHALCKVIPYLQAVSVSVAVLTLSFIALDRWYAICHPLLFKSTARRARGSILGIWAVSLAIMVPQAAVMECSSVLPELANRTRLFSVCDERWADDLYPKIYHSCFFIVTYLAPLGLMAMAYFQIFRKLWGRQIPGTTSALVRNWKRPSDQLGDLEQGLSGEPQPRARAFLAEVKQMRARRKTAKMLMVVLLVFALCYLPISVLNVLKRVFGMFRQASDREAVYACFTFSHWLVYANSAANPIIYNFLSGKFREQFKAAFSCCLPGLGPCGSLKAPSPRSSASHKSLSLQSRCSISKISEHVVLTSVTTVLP
Put plainly: OX1 calcium mobilization functional assay. The format is cell-based. As to conditions: ratio of Ke values.

Data set [3] concerns rats. Description: Drug discrimination assay. The note with it: 10 min pretreatment, data not shown. The format is in vivo.

As a reminder, the IC50 is the midpoint of a concentration-inhibition curve. On to `COc1ccc(C[C@H]2c3cc(OC)c(OC)cc3CCN2[C@@H](C(=O)NC(C)C)c2ccccc2)cc1OC` [ACT-335827, reference compound], for which the IC50 in the data set on OX1 was 0.006 µM.

On to `COC(=O)[C@H]1[C@@H](OC(=O)c2ccccc2)C[C@@H]2CC[C@H]1N2C` [Cocaine, reference compound], for which the “CPP produced by drug alone” value with rats [1] (10 mg/kg i.p., n=8-9) was “induced robust and significant CPP”.

For `Cc1nc2ccc(NC(=O)Nc3ccnc4cccnc34)cc2o1.Cl` [Compound 1], the hydrolytic stability result in data set [2] was “hydrolytic instability”.

A word on the Kd: it is the concentration at which binding is half-saturated. In the case of `COc1ccc(CC2c3cc(OC)c(OC)cc3CCN2CC(=O)NCc2ccccc2)cc1OC` (stereo not shown) [Compound 6, N-benzyl-2-{1-[(3,4-dimethoxyphenyl)methyl]-6,7-dimethoxy-1,2,3,4-tetrahydroisoquinolin-2-yl}acetamide], the IC50 with OX2 is 8.1 µM. Further, the Kd at OX2 receptor is greater than 10 µM.

Turning to `COc1ccc(CC2c3cc(OC)c(OC)cc3CCN2CC(=O)NCc2ccccn2)cc1OC` (stereo not shown) [Compound 53, 2-{1-[(3,4-dimethoxyphenyl)methyl]-6,7-dimethoxy-1,2,3,4-tetrahydroisoquinolin-2-yl}-N-(pyridin-2-ylmethyl)acetamide], at OX2 receptor, the Kd is greater than 10 µM. Also, at orexin 1 (OX1) receptor, the OX2/OX1 is given as greater than 38.3.

For `COc1ccc(CC2c3cc(OC)c(OC)cc3CCN2CC(=O)NCc2cccnc2)cc1OC` (stereo not shown) [Compound 54, 2-{1-[(3,4-dimethoxyphenyl)methyl]-6,7-dimethoxy-1,2,3,4-tetrahydroisoquinolin-2-yl}-N-(pyridin-3-ylmethyl)acetamide], the Kd at OX2 receptor is greater than 10 µM. Besides, the OX2/OX1 on orexin 1 (OX1) receptor is recorded as greater than 65.8.

For `COc1ccc(CC2c3cc(OC)c(OC)cc3CCN2CC(=O)NCc2ccc(N(C)C)cc2)cc1OC` (stereo not shown) [Compound 56, 2-{1-[(3,4-dimethoxyphenyl)methyl]-6,7-dimethoxy-1,2,3,4-tetrahydroisoquinolin-2-yl}-N-{[4-(dimethylamino)phenyl]methyl}acetamide], the Kd on OX2 receptor was greater than 10 µM. For the same compound, the OX2/OX1 on orexin 1 (OX1) receptor is recorded as greater than 3.1.

`CCCCCC(=O)Nc1ccc(CNC(=O)CN2CCc3cc(OC)c(OC)cc3C2Cc2ccc(OC)c(OC)c2)cc1` (stereo not shown) [Compound 58, N-{4-[(2-{1-[(3,4-dimethoxyphenyl)methyl]-6,7-dimethoxy-1,2,3,4-tetrahydroisoquinolin-2-yl}acetamido)methyl]phenyl}hexanamide]: on OX2 receptor, the Kd was 3.79 ± 0.67 µM. Also, the OX2/OX1 at orexin 1 (OX1) receptor is less than 0.4.

`CCCOc1cc2c(cc1OC)CCN(CC(=O)NCc1ccccn1)C2Cc1ccc(OC)c(OC)c1` (stereo not shown) [Compound 69, 2-{1-[(3,4-dimethoxyphenyl)methyl]-6-methoxy-7-propoxy-1,2,3,4-tetrahydroisoquinolin-2-yl}-N-(pyridin-2-ylmethyl)acetamide]: the Kd on OX2 receptor is greater than 10 µM. Moreover, the OX2/OX1 at orexin 1 (OX1) receptor is recorded as greater than 485.

For the compound `CCCOc1cc2c(cc1OC)CCN(CC(=O)NCc1cccnc1)C2Cc1ccc(OC)c(OC)c1` (stereo not shown) [Compound 70, 2-{1-[(3,4-dimethoxyphenyl)methyl]-6-methoxy-7-propoxy-1,2,3,4-tetrahydroisoquinolin-2-yl}-N-(pyridin-3-ylmethyl)acetamide], at OX2 receptor, the Kd is greater than 10 µM. For the same compound, the OX2/OX1 at orexin 1 (OX1) receptor is on record as greater than 239.

In the case of `COc1ccc(CC2c3cc(OCC(F)(F)F)c(OC)cc3CCN2CC(=O)NCc2ccccn2)cc1OC` (stereo not shown) [Compound 71, 2-{1-[(3,4-dimethoxyphenyl)methyl]-6-methoxy-7-(2,2,2-trifluoroethoxy)-1,2,3,4-tetrahydroisoquinolin-2-yl}-N-(pyridin-2-ylmethyl)acetamide], the Kd at OX2 receptor was greater than 10 µM. Moreover, on orexin 1 (OX1) receptor, the OX2/OX1 was greater than 444.

Consider `COc1ccc(CC2c3cc(OCC(F)(F)F)c(OC)cc3CCN2CC(=O)NCc2cccnc2)cc1OC` (stereo not shown) [Compound 72, 2-{1-[(3,4-dimethoxyphenyl)methyl]-6-methoxy-7-(2,2,2-trifluoroethoxy)-1,2,3,4-tetrahydroisoquinolin-2-yl}-N-(pyridin-3-ylmethyl)acetamide], for which the “effect on development of place preference induced by cocaine” value in the data set with rats [1] (20 mg/kg i.p. 10 min before cocaine 10 mg/kg, P < 0.05 vs cocaine) is “significantly attenuated”. Moreover, the “CPP produced by compound alone” value with rats [1] (20 mg/kg i.p., n=8-9) is given as “did not produce CPP or place aversion”. The Kd on OX2 receptor is greater than 10 µM. Besides, in the data set with rats [3], the “behavioral activity in drug discrimination” value is on record as “behaviorally active”. For the same compound, the OX2/OX1 on orexin 1 (OX1) receptor is listed as greater than 1180.

For the compound `CCOc1cc2c(cc1OC)CCN(CC(=O)NCc1ccccn1)C2Cc1ccc(OC)c(OC)c1` (stereo not shown) [Compound 73, 2-{1-[(3,4-dimethoxyphenyl)methyl]-7-ethoxy-6-methoxy-1,2,3,4-tetrahydroisoquinolin-2-yl}-N-(pyridin-2-ylmethyl)acetamide], at OX2 receptor, the dissociation constant (Kd) is greater than 10 µM. For the same compound, on orexin 1 (OX1) receptor, the OX2/OX1 is greater than 114.

For `CCOc1cc2c(cc1OC)CCN(CC(=O)NCc1cccnc1)C2Cc1ccc(OC)c(OC)c1` (stereo not shown) [Compound 74, 2-{1-[(3,4-dimethoxyphenyl)methyl]-7-ethoxy-6-methoxy-1,2,3,4-tetrahydroisoquinolin-2-yl}-N-(pyridin-3-ylmethyl)acetamide], the Kd on OX2 receptor was greater than 10 µM. Further, the OX2/OX1 on orexin 1 (OX1) receptor is recorded as greater than 637.

Source of the values: PMC3849818 (Journal of medicinal chemistry, 2013).
